Experimental data as given in PubChem BioAssay (NCI).
Values joined by “and” are separate entries in the source; they are usually repeats but may differ in a detail not shown here. Identical values can stand only once.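 All cell lines were grown in 96-well plates and treated with compound for 48 hours. GI50: concentration for 50% inhibition of growth. The concentration for full growth arrest is given as TGI.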

What was measured:
Assay in all cases: growth of human tumour cells (NCI), 48 h
OVCAR-5 ovarian = test system: OVCAR-5 ovarian
MOLT-4 leukemia = test system: MOLT-4 leukemia
U251 CNS = test system: U251 CNS
SK-OV-3 ovarian = test system: SK-OV-3 ovarian
A498 renal = test system: A498 renal
SF-295 CNS = test system: SF-295 CNS
K-562 leukemia = test system: K-562 leukemia
MDA-MB-231 breast = test system: MDA-MB-231 breast
RPMI-8226 leukemia = test system: RPMI-8226 leukemia
NCI-H23 lung = test system: NCI-H23 lung

## NC(=O)Oc1cc(OC(N)=O)cc(N(CCCl)CCCl)c1
OVCAR-5 ovarian
  GI50: 4.35 µM
  TGI: 30 µM
MOLT-4 leukemia
  GI50: 2.18 µM
  TGI: > 100 µM
U251 CNS
  GI50: 2.24 µM
  TGI: 54.9 µM
SK-OV-3 ovarian
  GI50: 13.1 µM
  TGI: > 100 µM
A498 renal
  GI50: 12.4 µM
  TGI: 29.3 µM
SF-295 CNS
  GI50: 2.89 µM
  TGI: > 100 µM
K-562 leukemia
  GI50: 10 µM
  TGI: > 100 µM
MDA-MB-231 breast
  GI50: 25.9 µM
  TGI: > 100 µM
RPMI-8226 leukemia
  GI50: 3.67 µM
  TGI: 53.2 µM
NCI-H23 lung
  GI50: 6.12 µM
  TGI: 63 µM

## CC(C)(O)[C@H]1[C@@H]2OC(=O)[C@H]1[C@]1(O)C[C@H]3OC34C(=O)O[C@H]2[C@@]41C (stereo not given in full) (tested in a mixture with another compound)
OVCAR-5 ovarian
  TGI: > 100 µM
MOLT-4 leukemia
  TGI: > 100 µM
U251 CNS
  TGI: > 100 µM
SK-OV-3 ovarian
  TGI: > 100 µM
A498 renal
  TGI: > 100 µM
SF-295 CNS
  TGI: > 100 µM
K-562 leukemia
  TGI: > 100 µM
MDA-MB-231 breast
  TGI: > 100 µM
RPMI-8226 leukemia
  TGI: > 100 µM
NCI-H23 lung
  TGI: > 100 µM

## O=C(O)c1cccc(CC(Br)C(=O)O)c1 (stereo not given)
OVCAR-5 ovarian
  TGI: > 100 µM
MOLT-4 leukemia
  TGI: > 100 µM
U251 CNS
  TGI: > 100 µM
SK-OV-3 ovarian
  TGI: > 100 µM
A498 renal
  TGI: > 100 µM
SF-295 CNS
  TGI: > 100 µM
K-562 leukemia
  TGI: > 100 µM
MDA-MB-231 breast
  TGI: > 100 µM
RPMI-8226 leukemia
  TGI: > 100 µM
NCI-H23 lung
  TGI: > 100 µM

## C/C(=C\c1c[nH]c2ccccc12)[N+](=O)[O-]
OVCAR-5 ovarian
  GI50: 19.3 µM
  TGI: 34 µM
MOLT-4 leukemia
  GI50: 2.19 µM
  TGI: 5.83 µM
U251 CNS
  GI50: 2.14 µM
  TGI: 7.04 µM
SK-OV-3 ovarian
  GI50: 11.4 µM
  TGI: 23.7 µM
A498 renal
  GI50: 14.9 µM
  TGI: 29.6 µM
SF-295 CNS
  GI50: 7.97 µM
  TGI: 22.7 µM
K-562 leukemia
  GI50: 4.03 µM
  TGI: 16.5 µM
MDA-MB-231 breast
  GI50: 11.4 µM
  TGI: 24.5 µM
RPMI-8226 leukemia
  GI50: 1.81 µM
  TGI: 4.17 µM
NCI-H23 lung
  GI50: 10.2 µM
  TGI: 22.6 µM

## COc1cc(C(=O)n2nc(N3CCN(C)CC3)c3cc(N)ccc32)cc(OC)c1OC
OVCAR-5 ovarian
  GI50: 8.18 µM
  TGI: > 100 µM
MOLT-4 leukemia
  GI50: 3.78 µM
  TGI: 43.9 µM
U251 CNS
  GI50: 3.65 µM
  TGI: 25.8 µM
SK-OV-3 ovarian
  GI50: 4.26 µM
  TGI: 93.2 µM
A498 renal
  GI50: 2.82 µM
  TGI: 7.12 µM
SF-295 CNS
  GI50: 3.54 µM
  TGI: 18.2 µM
K-562 leukemia
  GI50: 3.57 µM
  TGI: 13.2 µM
MDA-MB-231 breast
  GI50: 2.92 µM
  TGI: 21.6 µM
RPMI-8226 leukemia
  GI50: 4.79 µM
  TGI: 34.8 µM
NCI-H23 lung
  GI50: 4.15 µM
  TGI: > 100 µM

## C/C(=C\c1ccn(-c2ccc(N)cc2)n1)[C@@H]1C[C@@H]2O[C@]2(C)CCC[C@H](C)[C@H](O)[C@@H](C)C(=O)C(C)(C)[C@@H](O)CC(=O)O1
OVCAR-5 ovarian
  GI50: 0.107 µM
  TGI: > 50 µM
MOLT-4 leukemia
  GI50: 0.0486 µM
  TGI: > 50 µM
U251 CNS
  GI50: 0.0321 µM
  TGI: > 50 µM
SK-OV-3 ovarian
  GI50: 0.226 µM
  TGI: > 50 µM
A498 renal
  GI50: 0.102 µM
  TGI: 3.66 µM
SF-295 CNS
  GI50: 0.0721 µM
  TGI: > 50 µM
K-562 leukemia
  GI50: 0.0248 µM
  TGI: > 50 µM
MDA-MB-231 breast
  GI50: 0.252 µM
  TGI: > 50 µM
RPMI-8226 leukemia
  GI50: 0.0214 µM
  TGI: > 50 µM
NCI-H23 lung
  GI50: 0.0594 µM
  TGI: > 50 µM

## O=C1C=CC2(C=C1)CCN=c1c(O)c3c(c(O)c12)=NC=N3
OVCAR-5 ovarian
  GI50: 22.4 µM and > 100 µM
  TGI: 37.4 µM and > 100 µM
MOLT-4 leukemia
  GI50: 21.7 µM and > 100 µM
  TGI: > 100 µM
U251 CNS
  GI50: 10.6 µM and > 100 µM
  TGI: 24.1 µM and > 100 µM
SK-OV-3 ovarian
  GI50: 18.3 µM and > 100 µM
  TGI: 33.2 µM and > 100 µM
A498 renal
  GI50: 19.2 µM and > 100 µM
  TGI: 33.5 µM and > 100 µM
SF-295 CNS
  GI50: 20 µM and > 100 µM
  TGI: 34.4 µM and > 100 µM
K-562 leukemia
  TGI: 42.6 µM and > 100 µM
MDA-MB-231 breast
  GI50: 14.4 µM and > 100 µM
  TGI: 31.8 µM and > 100 µM
RPMI-8226 leukemia
  GI50: 12.2 µM and > 100 µM
  TGI: 42.3 µM and > 100 µM
NCI-H23 lung
  TGI: 19.5 µM and > 100 µM

## CCN(CC)CCOc1cc2c(C(=O)OC)c(C)oc2cc1C(C)=O
OVCAR-5 ovarian
  GI50: 15.4 µM
  TGI: 29.1 µM
MOLT-4 leukemia
  GI50: 3.02 µM
  TGI: 7.5 µM
U251 CNS
  GI50: 2.75 µM
  TGI: 10.7 µM
SK-OV-3 ovarian
  GI50: 14.7 µM
  TGI: 30.2 µM
A498 renal
  GI50: 53 µM
  TGI: > 100 µM
SF-295 CNS
  GI50: 14.8 µM
  TGI: 29.1 µM
K-562 leukemia
  GI50: 4.7 µM
  TGI: 29.2 µM
MDA-MB-231 breast
  GI50: 10.8 µM
  TGI: 23.5 µM
RPMI-8226 leukemia
  GI50: 2.76 µM
  TGI: 7.39 µM
NCI-H23 lung
  GI50: 11.8 µM
  TGI: 27.7 µM

## O=C(Nc1ccc(Br)c(Cl)c1)c1cc(F)ccc1O
OVCAR-5 ovarian
  GI50: 1.71 µM
  TGI: > 50 µM
MOLT-4 leukemia
  GI50: 0.943 µM
  TGI: 2.81 µM
U251 CNS
  GI50: 0.768 µM
  TGI: > 50 µM
SK-OV-3 ovarian
  GI50: 0.633 µM
  TGI: 3.79 µM
A498 renal
  GI50: 0.162 µM
  TGI: 1.03 µM
SF-295 CNS
  GI50: 0.933 µM
  TGI: 1.89 µM
K-562 leukemia
  GI50: 0.293 µM
  TGI: > 50 µM
MDA-MB-231 breast
  GI50: 0.76 µM
  TGI: 2.61 µM
RPMI-8226 leukemia
  GI50: 0.231 µM
  TGI: 1.02 µM
NCI-H23 lung
  GI50: 0.36 µM
  TGI: 3.17 µM

## CC(C)=CCC/C(C)=C/CC/C(=C/COP(=O)(OCc1ccc([N+](=O)[O-])o1)N(C)CCCCCl)C(C)(C)C (stereo not given)
OVCAR-5 ovarian
  GI50: 16.2 µM
  TGI: 32.8 µM
MOLT-4 leukemia
  GI50: 1.82 µM
  TGI: > 100 µM
U251 CNS
  GI50: 1.76 µM
  TGI: 12 µM
SK-OV-3 ovarian
  GI50: 18.1 µM
  TGI: 38.7 µM
A498 renal
  GI50: 0.125 µM
  TGI: 2.16 µM
K-562 leukemia
  GI50: 6.22 µM
  TGI: > 100 µM
MDA-MB-231 breast
  TGI: 1.03 µM
RPMI-8226 leukemia
  GI50: 1.45 µM
  TGI: 12.3 µM
NCI-H23 lung
  GI50: 12.6 µM
  TGI: 34.2 µM

## CNC1C(O)CC(OC2C/C=C(\C)C/C(C)=C/C=C/CCC(C)CNC(=O)/C=C/C=C/C2C)OC1C (stereo not given)
OVCAR-5 ovarian
  TGI: 2.53 µM
U251 CNS
  TGI: 1.03 µM
SK-OV-3 ovarian
  TGI: 3.27 µM
A498 renal
  TGI: 3.24 µM
SF-295 CNS
  TGI: 0.682 µM
K-562 leukemia
  TGI: 0.184 µM
MDA-MB-231 breast
  TGI: 2.91 µM
RPMI-8226 leukemia
  TGI: 0.548 µM
NCI-H23 lung
  TGI: 2.62 µM

## CN1CCN(Cc2ccc(Nc3ncc(Cl)c(Nc4ccccc4S(=O)(=O)N(C)C)n3)cc2)CC1
OVCAR-5 ovarian
  GI50: 0.0378 µM
  TGI: > 100 µM
U251 CNS
  GI50: 0.038 µM
  TGI: 1.46 µM
SK-OV-3 ovarian
  GI50: 0.219 µM
  TGI: > 100 µM
A498 renal
  GI50: 0.114 µM
  TGI: 0.327 µM
SF-295 CNS
  GI50: 0.0169 µM
  TGI: > 100 µM
K-562 leukemia
  GI50: 0.0386 µM
  TGI: > 100 µM
MDA-MB-231 breast
  GI50: 0.0222 µM
  TGI: 0.376 µM
RPMI-8226 leukemia
  GI50: 0.0103 µM
  TGI: 1.24 µM
NCI-H23 lung
  GI50: 0.0338 µM
  TGI: 0.358 µM

## COc1ccc2c(c1)Cc1c-2c(NN)nc2ccccc12
OVCAR-5 ovarian
  GI50: 35.5 µM
  TGI: > 100 µM
MOLT-4 leukemia
  GI50: 27.3 µM
  TGI: > 100 µM
U251 CNS
  GI50: 21.5 µM
  TGI: 68.7 µM
SK-OV-3 ovarian
  GI50: 16.9 µM
  TGI: 77.6 µM
A498 renal
  GI50: > 100 µM
  TGI: > 100 µM
SF-295 CNS
  GI50: 25.7 µM
  TGI: > 100 µM
K-562 leukemia
  GI50: 6.65 µM
  TGI: 85.1 µM
MDA-MB-231 breast
  GI50: 36 µM
  TGI: > 100 µM
RPMI-8226 leukemia
  GI50: 17.6 µM
  TGI: 48.3 µM
